Earlier results in patent US4138582A, “Cycloalkenyl analogues of prostaglandin A” (Miles Laboratories, Inc., priority 1977, dated 1979).
“Also recorded” adds a separate entry of the source. Like-named read-outs stand apart in the source and are kept apart here.

Key:
blood platelets = conditions: in vitro
human platelets = conditions: result in words
growth hormone = conditions: rats
gastric secretion [1] = conditions: dogs
[2] = test system: female reproductive system; conditions: fertility, labor, abortion, menstruation
gastric secretion [3] = conditions: man

SMILES	inhibition of thrombogenesis (blood platelets)	inhibition of platelet aggregation by natural prostaglandin (human platelets)	growth hormone release / synthesis (growth hormone)	inhibition of gastric secretion (gastric secretion [1])	effects in the female reproductive system [2]	inhibition of gastric secretion (gastric secretion [3])
CCCCC[C@H](O)/C=C/[C@H]1[C@H](O)CC(=O)[C@@H]1CCCCCCC(=O)O [PGE1]	inhibits thrombogenesis in vitro	displays similar activity	increase release of growth hormone	inhibit gastric secretion		
CCCCC[C@H](O)/C=C/[C@H]1[C@H](O)CC(=O)[C@@H]1C/C=C\CCCC(=O)O [PGE2]			increase release of growth hormone	inhibit gastric secretion	exerts potent oxytocic effects in inducing labor	
CCCCC[C@H](O)/C=C/[C@H]1C=CC(=O)[C@@H]1CCCCCCC(=O)O [PGA1]			increased synthesis of that hormone	inhibit gastric secretion		exhibits similar activity in man
CCCCC[C@H](O)/C=C/[C@@H]1[C@@H](C/C=C\CCCC(=O)O)[C@@H](O)C[C@H]1O [PGF2α]					has centragestational effects; also recorded: appears to be involved in the mechanism of menstruation; also recorded: induces spontaneous abortions in early pregnancy	
